Experimental data as given in US8409581B2, “Compounds for treating amyloidoses” (Affiris AG, priority 2008, dated 2013).

Columns and labels:
injected peptide = assay: Mimotope vaccination of mice, serum titer ELISA against injected peptide; type: in vivo, C57/B16 mice; details: 30 μg peptide-KLH, alum, s.c., FIG. 4
Procedure: (§1) Inhibiting as well as non-inhibiting peptides were coupled to KLH and injected into mice (wildtype C57/B16 mice; subcutaneous injection into the flank) together with an appropriate adjuvant (aluminium hydroxide). Animals were vaccinated 3-6 times in biweekly intervals and sera were taken biweekly as well. Titers to injected peptides, as well as to an irrelevant peptide were determined with every serum. Furthermore, titers against the recombinant human Aβ protein, and against original peptides were determined respectively. In general sera were analysed by reaction against peptides coupled to Bovine Serum Albumin (BSA) and recombinant full length proteins which were immobilised on ELISA plates. Titers were determined using anti mouse IgG specific antibodies. For detailed results see FIGS. 4, 5 and 6 respectively.
(§2) Female C57/b16 mice, 5-6 mice per group, were subcutaneously immunized with 30 μg peptide coupled to KLH. Control groups were administered original epitope-KLH conjugates respectively. As adjuvant alum was used (always 1 mg per mouse). […] The in vitro ELISA assay to determine the antibody titer was performed with sera of single mice after each vaccination in a two week interval (see FIGS. 6 and 7 respectively). Titers were calculated as OD max/2 in all figures shown. The wells of the ELISA plate were coated with mimotope-BSA conjugate and an irrelevant peptide-BSA conjugate (negative control). The positive control was performed by reaction of the parental antibody with the respective mimotope-BSA conjugate. The detection was performed with anti-mouse IgG. Additionally, recombinant proteins were immobilised on ELISA plates and sera reacted accordingly. FIGS. 4, 5 and 6 show representative examples for assays used to characterise mimotopes in vivo.

original epitope p4377 = assay: Mimotope vaccination of mice, serum titer ELISA against original epitope; type: in vivo, C57/B16 mice; details: 30 μg peptide-KLH, alum, s.c., FIG. 5
Procedure: as §1, §2

[1] = system: p1454 (unrelated sequence); assay: Mimotope vaccination of mice, serum titer ELISA against irrelevant peptide; type: in vivo, C57/B16 mice; details: 30 μg peptide-KLH, alum, s.c., FIG. 4
Procedure: as §1, §2

[2] = system: monoclonal antibody MV-002 binding to the original epitope; assay: In vitro inhibition assay (ELISA); parameters: species or system mice; details: for inhibition in in vitro inhibition/competition assay: MV-002, original epitope coated on ELISA plates; for Inhibition Capacity (competition code): OD at 5 ug peptide compared to original peptide, MV-002
Procedure: 2. In Vitro Inhibition Assay (ELISA)
Different amounts of peptides (concentrations ranging from 5 μg to 0.03 μg; serial dilutions), derived from Phage Display were incubated with the monoclonal antibody that was used for the screening procedure. Peptides diminishing subsequent binding of the antibody to the original epitope coated on ELISA plates were considered as inhibiting in this assay.

[3] = system: monoclonal antibody MV-002; assay: In vitro binding assay (ELISA) of mimotopes to parental antibody; parameters: species or system mice; details: peptide coupled to BSA bound to ELISA plates (1 μM); parental antibody MV-002
Procedure: 1. In Vitro Binding Assay (ELISA)
Peptides derived from Phage Display as well as variants thereof were coupled to BSA and bound to ELISA plates (1 μM; as indicated in the respective figures) and subsequently incubated with the monoclonal antibody that was used for the screening procedure to analyse binding capacity of identified peptides.

[4] = system: amyloid plaques (Aβ40/42) in brain; assay: Area occupied by amyloid plaques in Tg2576 AD mouse model; type: in vivo; details: Tg2576 mice

Sequence | immune response against injected peptide (injected peptide) | immune response against the original epitope p4377 (original epitope p4377) | unspecific immune response against unrelated sequence (p1454) [1] | inhibition in in vitro inhibition/competition assay [2] | Inhibition Capacity (competition code) [2] | Binding Capacity (binding code; OD halfmax 1:X, dilution factor of the parental AB) [3] | reduction of area occupied by amyloid plaques following mimotope treatment ([4]; group 2 versus PBS-ALUM control) | average area occupied by amyloid plaques ([4]; peptide-KLH conjugate adsorbed to ALUM, s.c. 6 times at monthly intervals, mAb 3A5 staining, control 0.35%)
EVHHQKLVFC [p4377, reference compound] | elicited immune responses | mounted detectable immune responses | failed to induce a relevant unspecific immune response | – | – | – | – | –
GEIWFEGC [p4680, MV-002 mimotope peptide] | elicited immune responses | mounted detectable immune responses | failed to induce a relevant unspecific immune response | active in in vitro inhibition assays | 2 (strong inhibition (as original epitope; OD of peptide below 2, 3 times of original peptide)) | 3 (strong binding :>320000) | – | –
GEIYFERC [p4681, MV-002 mimotope peptide] | elicited immune responses | mounted detectable immune responses | failed to induce a relevant unspecific immune response | active in in vitro inhibition assays | 2 (strong inhibition (as original epitope; OD of peptide below 2, 3 times of original peptide)) | 3 (strong binding :>320000) | – | –
HMRLFFNC [p4670, MV-002 mimotope peptide] | elicited immune responses | mounted detectable immune responses | failed to induce a relevant unspecific immune response | active in in vitro inhibition assays | 1 (Weaker than original epitope (OD of peptide below 4, 6 times of original peptide)) | 3 (strong binding :>320000) | – | –
HQKMIFAC [p4675, MV-002 mimotope peptide; used as KLH conjugate vaccine in Tg2576 mice] | elicited immune responses | mounted detectable immune responses | failed to induce a relevant unspecific immune response | active in in vitro inhibition assays | 2 (strong inhibition (as original epitope; OD of peptide below 2, 3 times of original peptide)) | 3 (strong binding :>320000) | 31% | 0.24%
SHTRLYFC [p4403, MV-002 mimotope peptide] | elicited immune responses | mounted detectable immune responses | failed to induce a relevant unspecific immune response | without inhibition capacity | – | 1 (weak binding :<40000) | – | –
